Data on 13 molecules can be found in ChEMBL document CHEMBL5724696, “Autophagy assay results for EUbOPEN Chemogenomics Library” (2024).

This assay concerns TERT-RPE1. The assay is described as follows: Here: values are normalized to the negative (DMSO; defined as 0% autophagy induction) and positive (250nM Torin1; mTOR inhibitor; defined as maximal inducer of autophagy = 100%) control compounds and represented as % of autophagy induction. […] The impact of autophagy induction on cells is complex and depends on the affected target. As such, the magnitude of a phenotype may not be equally mirrored in the %-value of autophagy induction and vice versa. The dynamics of the induction may indicate the mode of activation: e.g. activation via phosphorylation or a signaling cascade may occur fast, while activation via transcription factors may take considerably longer. […] Of note, treatment concentrations may be sub-optimal for specific compounds, leading to false negative annotations. Format: functional, Homo sapiens. To be noted: Culturing Media DMEM/F12 (1:1), 1 % Penicillin/Streptomycin, 10% Fetal bovin serum Add-On: No, Screening Media Control DMEM/F12 (1:1), Screening Media Samples DMEM/F12 (1:1).

[1] abbreviates: Compound Concentration 10 uM, Timepoint 12 hours.
Setting [2] is: Compound Concentration 10 uM, Timepoint 24 hours.
Where [3] appears, read: Compound Concentration 10 uM, Timepoint 36 hours.
Setting [4] is: Compound Concentration 10 uM, Timepoint 60 hours.
Where [5] appears, read: Compound Concentration 1 uM, Timepoint 12 hours.
Where [6] appears, read: Compound Concentration 1 uM, Timepoint 24 hours.
Where [7] appears, read: Compound Concentration 1 uM, Timepoint 36 hours.
Setting [8] is: Compound Concentration 1 uM, Timepoint 60 hours.

`O=c1[nH]c2ccccc2n1CCCN1CCN(C(c2ccccc2)c2ccccc2)CC1` [OXATOMIDE]: the autophagy induction is given as 12.1676% under setting [1], 23.0166% under setting [2], 23.6799% under setting [3] and -2.469% under setting [4].

As for `CCC(C)N(C)C(=O)c1cc2ccccc2c(-c2ccccc2Cl)n1` (configuration not stated) [PK-11195], the autophagy induction runs as follows: under setting [1], -6.134%; under setting [2], 6.633%; under setting [3], 20.4099%; under setting [4], 30.5956%.

Turning to `CC(C)c1cc(Oc2c(Cl)cc(-n3nc(C#N)c(=O)[nH]c3=O)cc2Cl)n[nH]c1=O` [RESMETIROM], the autophagy induction runs as follows: under setting [5], -11.5681%; under setting [6], 0.0003786%; under setting [7], 17.8213%; under setting [8], -19.2681%.

With `CO[C@H]1/C=C/O[C@@]2(C)Oc3c(C)c(O)c4c(O)c(c(/C=N/N5CCN(C)CC5)c(O)c4c3C2=O)NC(=O)/C(C)=C\C=C\[C@H](C)[C@H](O)[C@@H](C)[C@@H](O)[C@@H](C)[C@H](OC(C)=O)[C@@H]1C` [RIFAMPIN], the autophagy induction is, setting by setting: under setting [5], -6.53%; under setting [6], -7.862%; under setting [7], -4.147%; under setting [8], 5.829%.

As to `CN(CCOc1ccc(CC2SC(=O)NC2=O)cc1)c1ccccn1` (configuration not stated) [ROSIGLITAZONE], the autophagy induction is, setting by setting: under setting [5], -11.8893%; under setting [6], 0.9014%; under setting [7], 16.9691%; under setting [8], -11.1596%.

As for `C=C1/C(=C\C=C2/CCC[C@]3(C)[C@@H]([C@H](C)/C=C/C=C/C(O)(CC)CC)CC[C@@H]23)C[C@@H](O)C[C@@H]1O` [SEOCALCITOL], the autophagy induction by setting is: under setting [5], 1.435%; under setting [6], 3.014%; under setting [7], 6.115%; under setting [8], 9.3722%.

As for `Cc1cc(OCC(=O)O)cc(C)c1Cc1ccc(O)c(C(C)C)c1` [SOBETIROME], the autophagy induction under setting [5] was -4.298%, the autophagy induction under setting [6] is -6.005%, the autophagy induction under setting [7] was 3.899% and the autophagy induction under setting [8] amounted to 12.5403%.

As for `CCOC(=O)N1CCC(CN(Cc2ccc(Cl)cc2)Cc2ccc([N+](=O)[O-])s2)C1` (configuration not stated) [SR9009], the autophagy induction is, setting by setting: under setting [5], -2.29%; under setting [6], -4.7715%; under setting [7], -4.329%; under setting [8], -0.7127%.

Regarding `CCCCCNC(=O)N1CCC(CN(Cc2ccc(Cl)cc2)Cc2ccc([N+](=O)[O-])s2)C1` (configuration not stated) [SR9011], the autophagy induction under setting [5] is recorded as -13.327%, the autophagy induction under setting [6] is -1.26%, the autophagy induction under setting [7] came to 19.5212% and the autophagy induction under setting [8] is recorded as -21.0748%.

Consider `O=S(=O)(c1ccccc1)N(CC(F)(F)F)c1ccc(C(O)(C(F)(F)F)C(F)(F)F)cc1` [T091317], for which the autophagy induction under setting [5] is recorded as -11.1926%, the autophagy induction under setting [6] is given as -0.1715%, the autophagy induction under setting [7] was 8.77% and the autophagy induction under setting [8] was -29.9579%.

Turning to `CC1(C)CCC(C)(C)c2cc(NC(=O)c3ccc(C(=O)O)cc3)ccc21` [TAMIBAROTENE], the autophagy induction runs as follows: under setting [5], -36.8107%; under setting [6], -29.3713%; under setting [7], -7.633%; under setting [8], 34.9259%.

In the case of `CCOC(=O)c1ccc(C#Cc2ccc3c(c2)C(C)(C)CCS3)nc1` [TAZAROTENE], the autophagy induction under setting [5] is given as -17.2771%, the autophagy induction under setting [6] is listed as -27.562%, the autophagy induction under setting [7] is reported as -16.2551% and the autophagy induction under setting [8] is reported as 40.4791%.

Take `Cn1cc(C(=O)O)c2ccc(N3CCC(OCc4c(-c5c(Cl)cccc5Cl)noc4C4CC4)CC3)cc21` [TERN-101]: the autophagy induction is listed as -2.759% under setting [5], -6.198% under setting [6], -6.322% under setting [7] and 3.921% under setting [8].
